Data on 26 compounds can be found in patent US7928107B2, “Quinazolines useful as modulators of ion channels” (Vertex Pharmaceuticals Incorporated, priority 2004, dated 2011).

What is called pIC50 is the IC50 on a negative log10 scale, so that one unit is a factor of ten.

pIC50: −log10 of the molar value.

Chain of NaV 1.8 channel (Q9Y5Y9 whole entry): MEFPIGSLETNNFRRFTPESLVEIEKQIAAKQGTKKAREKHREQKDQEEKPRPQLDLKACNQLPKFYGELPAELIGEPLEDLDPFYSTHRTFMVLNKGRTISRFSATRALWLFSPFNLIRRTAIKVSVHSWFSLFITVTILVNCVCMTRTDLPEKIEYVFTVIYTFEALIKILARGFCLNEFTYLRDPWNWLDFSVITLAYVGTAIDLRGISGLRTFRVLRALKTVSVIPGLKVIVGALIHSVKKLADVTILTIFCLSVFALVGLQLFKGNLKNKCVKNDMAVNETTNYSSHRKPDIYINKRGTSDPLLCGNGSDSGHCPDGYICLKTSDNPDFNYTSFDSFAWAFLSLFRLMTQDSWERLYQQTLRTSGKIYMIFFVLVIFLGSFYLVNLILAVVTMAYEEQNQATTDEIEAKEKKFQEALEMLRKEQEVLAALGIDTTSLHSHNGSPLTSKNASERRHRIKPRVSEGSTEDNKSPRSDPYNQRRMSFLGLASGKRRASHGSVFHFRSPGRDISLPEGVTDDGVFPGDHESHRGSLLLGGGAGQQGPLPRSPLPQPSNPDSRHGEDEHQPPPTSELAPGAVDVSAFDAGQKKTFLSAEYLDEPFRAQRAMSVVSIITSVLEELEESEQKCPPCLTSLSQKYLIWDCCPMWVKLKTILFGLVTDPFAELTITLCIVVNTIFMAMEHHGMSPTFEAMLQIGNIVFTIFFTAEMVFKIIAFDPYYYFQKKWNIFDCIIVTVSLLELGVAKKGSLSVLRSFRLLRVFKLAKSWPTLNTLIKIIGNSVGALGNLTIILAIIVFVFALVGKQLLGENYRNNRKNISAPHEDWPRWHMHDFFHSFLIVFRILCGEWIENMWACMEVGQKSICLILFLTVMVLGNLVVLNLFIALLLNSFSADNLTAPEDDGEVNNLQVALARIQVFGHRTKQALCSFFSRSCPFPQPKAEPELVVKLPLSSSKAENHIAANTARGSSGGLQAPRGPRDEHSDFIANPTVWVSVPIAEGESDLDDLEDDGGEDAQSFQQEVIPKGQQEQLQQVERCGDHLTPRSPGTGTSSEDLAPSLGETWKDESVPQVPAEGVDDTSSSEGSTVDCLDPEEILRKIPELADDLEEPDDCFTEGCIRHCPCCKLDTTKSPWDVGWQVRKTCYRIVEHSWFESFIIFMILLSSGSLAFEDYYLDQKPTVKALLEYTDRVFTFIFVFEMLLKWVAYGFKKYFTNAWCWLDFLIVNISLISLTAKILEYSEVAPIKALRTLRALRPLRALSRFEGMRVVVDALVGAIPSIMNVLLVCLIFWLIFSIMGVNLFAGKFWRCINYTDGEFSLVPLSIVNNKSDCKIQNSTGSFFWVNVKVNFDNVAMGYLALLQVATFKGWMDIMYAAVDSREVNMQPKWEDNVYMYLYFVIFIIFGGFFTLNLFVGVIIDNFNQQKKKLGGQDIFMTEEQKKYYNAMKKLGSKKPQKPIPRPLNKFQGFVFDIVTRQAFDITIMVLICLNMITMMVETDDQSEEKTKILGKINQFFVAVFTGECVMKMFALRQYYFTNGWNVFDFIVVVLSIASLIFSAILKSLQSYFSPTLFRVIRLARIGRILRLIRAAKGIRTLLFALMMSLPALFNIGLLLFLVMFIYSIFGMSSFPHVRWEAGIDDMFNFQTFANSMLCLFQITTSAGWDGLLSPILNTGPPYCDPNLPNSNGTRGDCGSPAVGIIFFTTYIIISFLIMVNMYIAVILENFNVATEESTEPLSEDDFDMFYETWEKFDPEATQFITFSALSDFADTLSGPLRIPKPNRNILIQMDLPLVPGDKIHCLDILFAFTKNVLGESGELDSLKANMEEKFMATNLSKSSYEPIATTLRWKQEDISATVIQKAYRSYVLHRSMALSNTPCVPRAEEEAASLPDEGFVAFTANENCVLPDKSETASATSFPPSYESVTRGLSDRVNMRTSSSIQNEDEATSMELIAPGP

For the experiment, the target named is NaV 1.8 channel (Homo sapiens, UniProt Q9Y5Y9). In words: Activity against NaV 1.8 channel (optical membrane potential assay). Type of experiment: cell-based. Summed up:
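FRET membrane-potential assay (coumarin CC2-DMPE donor, oxonol DiSBAC2(3) acceptor plus veratridine) on VIPR; compound added with oxonol for 20–30 min before Na+ add-back stimulation. Activity from background-subtracted 460/580 nm ratio change (baseline 2–7 s, response 15–24 s) relative to tetracaine positive and drug-free negative controls.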
In the case of `Cc1ccc2c(N3CCC(NC(=O)OCc4cccc5c4OCO5)CC3)nc(-c3ccccc3O)nc2c1` [Example 229, (Benzo[d][1,3]dioxol-7-yl)methyl 1-(2-(2-hydroxyphenyl)-7-methylquinazolin-4-yl)piperidin-4-ylcarbamate], the pIC50 was below 5.00.

For the compound `Cc1ccc2c(N3CCCC(C(=O)NCC4CCCO4)C3)nc(-c3ccccc3O)nc2c1` (centres unmarked) [Example 230, N-((Tetrahydrofuran-2-yl)methyl)-1-(2-(2-hydroxyphenyl)-7-methylquinazolin-4-yl)piperidine-3-carboxamide], the negative-log IC50 (pIC50) was 5.00 to 5.70.

In the case of `Cc1ccc2c(N3CCC[C@@H](CNC(=O)O[C@H]4CCOC4)C3)nc(-c3c(O)cccc3F)nc2c1` [Example 231, (S)-Tetrahydrofuran-3-yl ((S)-1-(2-(2-fluoro-6-hydroxyphenyl)-7-methylquinazolin-4-yl)piperidin-3-yl)methylcarbamate], the pIC50 was 5.00 to 5.70. `Cc1ccc2c(N3CCC(NC(=O)[C@H](O)CC(C)(C)C)CC3)nc(-c3ccccc3O)nc2c1` [Example 232, (2R)-2-Hydroxy-N-(1-(2-(2-hydroxyphenyl)-7-methylquinazolin-4-yl)piperidin-4-yl)-4,4-dimethylpentanamide]: the negative-log IC50 (pIC50) is 5.00 to 5.70. For the compound `Cc1ccc2c(N3CCC(NC(=O)C(C)(C)O)CC3)nc(-c3ccccc3O)nc2c1` [Example 233, 2-Hydroxy-N-(1-(2-(2-hydroxyphenyl)-7-methylquinazolin-4-yl)piperidin-4-yl)-2-methylpropanamide], the pIC50 is below 5.00. The value for `CCC(O)(CC)C(=O)NC1CCN(c2nc(-c3ccccc3O)nc3cc(C)ccc23)CC1` [Example 234, 2-Ethyl-2-hydroxy-N-(1-(2-(2-hydroxyphenyl)-7-methylquinazolin-4-yl)piperidin-4-yl)butanamide] was below 5.00; that for `CC(C)(O)C(=O)NC1CCN(c2nc(-c3ccccc3O)nc3ccccc23)CC1` [Example 235, 2-Hydroxy-N-(1-(2-(2-hydroxyphenyl)quinazolin-4-yl)piperidin-4-yl)-2-methylpropanamide] was 5.00 to 5.70; that for `CC[C@@H](O)C(=O)NC1CCN(c2nc(-c3ccccc3O)nc3ccccc23)CC1` [Example 236, (2R)-2-Hydroxy-N-(1-(2-(2-hydroxyphenyl)quinazolin-4-yl)piperidin-4-yl)butanamide] was below 5.00. The same measure for `CC[C@H](O)C(=O)NC1CCN(c2nc(-c3ccccc3O)nc3ccccc23)CC1` [Example 237, (2S)-2-Hydroxy-N-(1-(2-(2-hydroxyphenyl)quinazolin-4-yl)piperidin-4-yl)butanamide]: below 5.00; for `CCCCC(O)C(=O)NC1CCN(c2nc(-c3ccccc3O)nc3ccccc23)CC1` (centres unmarked) [Example 238, 2-Hydroxy-N-(1-(2-(2-hydroxyphenyl)quinazolin-4-yl)piperidin-4-yl)hexanamide]: below 5.00; for `CC(O)(C(=O)NC1CCN(c2nc(-c3ccccc3O)nc3ccccc23)CC1)C(F)(F)F` (centres unmarked) [Example 239, 2-(Trifluoromethyl)-2-hydroxy-N-(1-(2-(2-hydroxyphenyl)quinazolin-4-yl)piperidin-4-yl)propanamide]: below 5.00.

Consider `CCC(O)(CC)C(=O)NC1CCN(c2nc(-c3ccccc3O)nc3ccccc23)CC1` [Example 240, 2-Ethyl-2-hydroxy-N-(1-(2-(2-hydroxyphenyl)quinazolin-4-yl)piperidin-4-yl)butanamide], for which the pIC50 was below 5.00. Take `CCCC(O)C(=O)NC1CCN(c2nc(-c3ccccc3O)nc3ccccc23)CC1` (centres unmarked) [Example 241, 2-Hydroxy-N-(1-(2-(2-hydroxyphenyl)quinazolin-4-yl)piperidin-4-yl)pentanamide]: the pIC50 was below 5.00. Consider `CCC(C)(O)C(=O)NC1CCN(c2nc(-c3ccccc3O)nc3ccccc23)CC1` (centres unmarked) [Example 242, 2-Hydroxy-N-(1-(2-(2-hydroxyphenyl)quinazolin-4-yl)piperidin-4-yl)-2-methylbutanamide], for which the negative-log IC50 (pIC50) was 5.00 to 5.70. With `CC[C@@H](O)C(=O)NC1CCN(c2nc(-c3ccccc3O)nc3cc(C)ccc23)CC1` [Example 243, (2R)-2-Hydroxy-N-(1-(2-(2-hydroxyphenyl)-7-methylquinazolin-4-yl)piperidin-4-yl)butanamide], the pIC50 was below 5.00.

Take `CC[C@H](O)C(=O)NC1CCN(c2nc(-c3ccccc3O)nc3cc(C)ccc23)CC1` [Example 244, (2S)-2-Hydroxy-N-(1-(2-(2-hydroxyphenyl)-7-methylquinazolin-4-yl)piperidin-4-yl)butanamide]: the pIC50 is below 5.00.

For `CCCCC(O)C(=O)NC1CCN(c2nc(-c3ccccc3O)nc3cc(C)ccc23)CC1` (centres unmarked) [Example 245, 2-Hydroxy-N-(1-(2-(2-hydroxyphenyl)-7-methylquinazolin-4-yl)piperidin-4-yl)hexanamide], the pIC50 is below 5.00. The same measure for `Cc1ccc2c(N3CCC(NC(=O)C(C)(O)C(F)(F)F)CC3)nc(-c3ccccc3O)nc2c1` (centres unmarked) [Example 246, 2-(Trifluoromethyl)-2-hydroxy-N-(1-(2-(2-hydroxyphenyl)-7-methylquinazolin-4-yl)piperidin-4-yl)propanamide]: below 5.00; for `CCCC(O)C(=O)NC1CCN(c2nc(-c3ccccc3O)nc3cc(C)ccc23)CC1` (centres unmarked) [Example 247, 2-Hydroxy-N-(1-(2-(2-hydroxyphenyl)-7-methylquinazolin-4-yl)piperidin-4-yl)pentanamide]: below 5.00.

For the compound `CCC(C)(O)C(=O)NC1CCN(c2nc(-c3ccccc3O)nc3cc(C)ccc23)CC1` (centres unmarked) [Example 248, 2-Hydroxy-N-(1-(2-(2-hydroxyphenyl)-7-methylquinazolin-4-yl)piperidin-4-yl)-2-methylbutanamide], the pIC50 was 5.00 to 5.70.

On to `Cc1ccc2c(N3CCC(NC(=O)[C@H](O)CC(C)(C)C)CC3)nc(-c3c(O)cccc3F)nc2c1` [Example 249, (2R)—N-(1-(2-(2-Fluoro-6-hydroxyphenyl)-7-methylquinazolin-4-yl)piperidin-4-yl)-2-hydroxy-4,4-dimethylpentanamide], for which the pIC50 was 5.00 to 5.70.

As to `Cc1ccc2c(N3CCCC(CNC(=O)OCC(C)C)C3)nc(-c3ccccc3O)nc2c1` (centres unmarked) [Example 250, Isobutyl (1-(2-(2-hydroxyphenyl)-7-methylquinazolin-4-yl)piperidin-3-yl)methylcarbamate], the pIC50 was above 5.70.

As to `CCOC(=O)NCC1CCCN(c2nc(-c3ccccc3O)nc3cc(C)ccc23)C1` (centres unmarked) [Example 251, Ethyl (1-(2-(2-hydroxyphenyl)-7-methylquinazolin-4-yl)piperidin-3-yl)methylcarbamate], the pIC50 is 5.00 to 5.70. With `Cc1ccc2c(N3CCC[C@@H](CNC(=O)OCC(C)C)C3)nc(-c3ccccc3O)nc2c1` [Example 252, Isobutyl ((S)-1-(2-(2-hydroxyphenyl)-7-methylquinazolin-4-yl)piperidin-3-yl)methylcarbamate], the negative-log IC50 (pIC50) is below 5.00. As to `Cc1ccc2c(N3CCC[C@H](CNC(=O)OCC(C)C)C3)nc(-c3ccccc3O)nc2c1` [Example 253, Isobutyl ((R)-1-(2-(2-hydroxyphenyl)-7-methylquinazolin-4-yl)piperidin-3-yl)methylcarbamate], the pIC50 is below 5.00. With `CCOC(=O)NC[C@@H]1CCCN(c2nc(-c3ccccc3O)nc3cc(C)ccc23)C1` [Example 254, Ethyl((S)-1-(2-(2-hydroxyphenyl)-7-methylquinazolin-4-yl)piperidin-3-yl)methylcarbamate], the pIC50 is 5.00 to 5.70.
